Measurements as given in the supplement of paper PMC10307832.

What was measured:
Assay in all cases: relative viability (nuclei count vs DMSO), 5 days (fraction); higher = more cells survive
Kobe2602 + Trametinib = compound: C1=CC(=CC=C1NC(=S)NNC2=C(C=C(C=C2[N+](=O)[O-])C(F)(F)F)[N+](=O)[O-])F [Kobe2602] + CC(=O)Nc1cccc(-n2c(=O)n(C3CC3)c(=O)c3c(Nc4ccc(I)cc4F)n(C)c(=O)c(C)c32)c1 [Trametinib] (partner 0.02 µM)
Procedure, shortened: (§1)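 Values are medians from duplicate plates. Each reflects relative viability, defined as the nuclei count of treated wells over that of vehicle wells. Lung cancer cell lines in 1536-well plates were pin-tool dosed one day after seeding with one drug alone or with a fixed anchor-drug dose plus five library-drug doses (not always all listed) in √10 steps, then fixed, stained and imaged at 4× after 5 days.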

[1] = compound: COc1cc2nccc(Oc3ccc(NC(=O)C4(C(=O)Nc5ccc(F)cc5)CC4)cc3)c2cc1OC [Cabozantinib] + CC(=O)Nc1cccc(-n2c(=O)n(C3CC3)c(=O)c3c(Nc4ccc(I)cc4F)n(C)c(=O)c(C)c32)c1 [Trametinib] (partner 0.02 µM)
Procedure, shortened: as §1

Zosuquidar + AZD7762 = compound: O[C@@H](COc1cccc2ncccc12)CN1CCN([C@@H]2c3ccccc3[C@@H]3[C@H](c4ccccc42)C3(F)F)CC1 [Zosuquidar] + NC(=O)Nc1cc(-c2cccc(F)c2)sc1C(=O)N[C@H]1CCCNC1 [AZD7762] (partner 0.2 µM)
Procedure, shortened: as §1

Zosuquidar + Olaparib = compound: O[C@@H](COc1cccc2ncccc12)CN1CCN([C@@H]2c3ccccc3[C@@H]3[C@H](c4ccccc42)C3(F)F)CC1 [Zosuquidar] + O=C(c1cc(Cc2n[nH]c(=O)c3ccccc23)ccc1F)N1CCN(C(=O)C2CC2)CC1 [Olaparib] (partner 8 µM)
Procedure, shortened: as §1

Cell Line | relative viability (Kobe2602 + Trametinib; first compound 0.2 µM) | relative viability (Kobe2602 + Trametinib; first compound 0.6325 µM) | relative viability (Kobe2602 + Trametinib; first compound 2 µM) | relative viability (Kobe2602 + Trametinib; first compound 6.325 µM) | relative viability (Kobe2602 + Trametinib; first compound 20 µM) | relative viability ([1]; first compound 0.02 µM) | relative viability ([1]; first compound 0.06325 µM) | relative viability ([1]; first compound 0.2 µM) | relative viability ([1]; first compound 0.6325 µM) | relative viability ([1]; first compound 2 µM) | relative viability (Zosuquidar + AZD7762; first compound 0.01 µM) | relative viability (Zosuquidar + AZD7762; first compound 0.03162 µM) | relative viability (Zosuquidar + AZD7762; first compound 0.1 µM) | relative viability (Zosuquidar + AZD7762; first compound 0.3162 µM) | relative viability (Zosuquidar + AZD7762; first compound 1 µM) | relative viability (Zosuquidar + Olaparib; first compound 0.01 µM) | relative viability (Zosuquidar + Olaparib; first compound 0.03162 µM) | relative viability (Zosuquidar + Olaparib; first compound 0.1 µM) | relative viability (Zosuquidar + Olaparib; first compound 0.3162 µM) | relative viability (Zosuquidar + Olaparib; first compound 1 µM)
HCC-366 | 0.284 | 0.386 | 0.31 | 0.297 | 0.302 | 0.409 | 0.334 | 0.35 | 0.285 | 0.272 | 0.23 | 0.227 | 0.285 | 0.369 | 0.298 | 0.314 | 0.377 | 0.415 | 0.324 | 0.324
HCC-827 | 0.546 | 0.546 | 0.571 | 0.537 | 0.558 | 0.529 | 0.586 |  | 0.504 | 0.476 | 0.171 | 0.212 | 0.148 | 0.216 | 0.192 | 0.688 | 0.567 | 0.518 | 0.65 | 0.622
HOP-62 | 0.446 | 0.39 | 0.355 | 0.415 | 0.415 | 0.413 | 0.389 | 0.4 | 0.376 | 0.349 | 0.619 | 0.771 | 0.512 | 0.802 | 0.631 | 0.461 | 0.548 | 0.485 | 0.665 | 0.384
IA-LM |  |  |  |  |  |  |  |  |  |  |  |  |  |  |  | 0.817 | 0.805 | 0.82 | 0.879 | 0.885
LC-2-ad | 0.931 | 0.895 | 0.849 | 0.936 | 0.89 | 0.924 | 0.948 | 0.92 | 0.761 | 0.48 | 0.78 | 0.855 | 0.883 | 0.842 | 0.787 | 0.689 | 0.67 | 0.693 | 0.716 | 0.719
LCLC-97TM1 | 0.184 | 0.186 |  | 0.207 | 0.257 | 0.197 | 0.236 | 0.214 | 0.212 | 0.19 | 0.214 | 0.345 |  | 0.25 | 0.2 | 0.307 | 0.453 |  | 0.335 | 0.515
LCLC-103H | 0.651 | 0.731 | 0.674 | 0.73 | 0.644 | 0.716 | 0.709 | 0.678 | 0.68 | 0.667 | 0.793 | 0.76 | 0.672 | 0.755 | 0.809 | 0.743 | 0.721 | 0.808 | 0.759 | 0.695
LK-2 | 0.839 | 0.856 | 0.744 | 0.631 | 0.852 | 0.678 | 0.836 | 0.717 | 0.863 | 0.781 | 0.496 | 0.428 | 0.328 | 0.541 | 0.279 | 0.542 | 0.891 | 0.597 | 0.752 | 0.852
LOU-NH91 | 0.763 | 0.793 | 0.739 | 0.793 | 0.821 | 0.778 | 0.866 | 0.692 | 0.785 | 0.748 | 0.761 | 0.807 | 0.637 | 0.793 | 0.74 | 0.845 | 0.904 | 0.728 | 0.97 | 0.873
NCI-H520 | 0.682 | 0.642 | 0.744 | 0.644 | 0.788 | 0.699 | 0.83 | 0.808 | 0.73 | 0.538 |  |  |  |  |  | 0.395 | 0.312 | 0.341 | 0.29 | 0.335
NCI-H661 | 0.554 | 0.594 | 0.594 | 0.622 | 0.522 | 0.542 | 0.653 | 0.579 | 0.572 | 0.605 |  |  |  |  |  | 0.718 | 0.731 | 0.737 | 0.727 | 0.759
NCI-H1299 |  |  |  |  |  |  |  |  |  |  |  |  |  |  |  | 0.982 | 0.976 | 0.993 | 0.963 | 1.01
NCI-H1650 | 0.724 | 0.525 | 0.59 | 0.536 | 0.586 | 0.656 | 0.615 | 0.391 | 0.643 | 0.691 |  |  |  |  |  | 0.95 | 0.812 | 0.725 | 0.714 | 0.742
NCI-H1703 |  |  |  |  |  |  |  |  |  |  | 0.0988 | 0.125 |  | 0.136 | 0.125 | 0.413 | 0.421 | 0.394 | 0.858 | 0.451
NCI-H2009 | 0.297 | 0.373 | 0.332 | 0.305 | 0.274 | 0.276 | 0.281 | 0.293 | 0.275 | 0.24 |  |  |  |  |  | 0.631 | 0.611 | 0.684 | 0.639 | 0.65
NCI-H2023 | 0.469 | 0.608 | 0.592 | 0.444 | 0.201 | 0.497 | 0.707 | 0.445 | 0.381 | 0.293 |  |  |  |  |  | 0.498 | 0.549 | 0.52 | 0.485 | 0.477
NCI-H2228 | 0.645 | 0.612 | 0.41 | 0.461 | 0.742 | 0.4 | 0.61 | 0.594 | 0.704 | 0.479 |  |  |  |  |  | 0.626 | 0.51 | 0.61 | 0.64 | 0.936
SK-LU-1 | 0.519 | 0.506 | 0.469 | 0.439 | 0.58 | 0.475 | 0.58 | 0.623 | 0.4 | 0.451 |  |  |  |  |  | 0.517 | 0.535 | 0.485 | 0.531 | 0.435
SK-MES-1 | 0.579 | 0.534 | 0.554 | 0.589 | 0.496 | 0.605 | 0.666 | 0.615 | 0.535 | 0.533 |  |  |  |  |  | 0.707 | 0.739 | 0.829 | 0.73 | 0.723
SW 1573 | 0.67 | 0.677 | 0.46 | 0.458 | 0.155 | 0.57 | 0.631 | 0.588 | 0.516 | 0.436 |  |  |  |  |  | 0.427 | 0.357 | 0.544 | 0.471 | 0.446
